Test results: ChEMBL document CHEMBL1132011, “The synthesis of ketomethylene pseudopeptide analogues of dipeptide aldehyde inhibitors of calpain” (Bioorg Med Chem Lett, 1999)
Non-standard residues stand in square brackets, D forms with d. Residues, ends and D or L forms follow the SMILES beside them. ξ: configuration not given here. *: point of attachment. ξF = NC(Cc1ccccc1)C(=O)O; Cbz = O=C(OCc1ccccc1)*

Molecular target: T1, Calpain-1 catalytic subunit (Gallus gallus, UniProt P00789)
T1 sequence (P00789 whole entry): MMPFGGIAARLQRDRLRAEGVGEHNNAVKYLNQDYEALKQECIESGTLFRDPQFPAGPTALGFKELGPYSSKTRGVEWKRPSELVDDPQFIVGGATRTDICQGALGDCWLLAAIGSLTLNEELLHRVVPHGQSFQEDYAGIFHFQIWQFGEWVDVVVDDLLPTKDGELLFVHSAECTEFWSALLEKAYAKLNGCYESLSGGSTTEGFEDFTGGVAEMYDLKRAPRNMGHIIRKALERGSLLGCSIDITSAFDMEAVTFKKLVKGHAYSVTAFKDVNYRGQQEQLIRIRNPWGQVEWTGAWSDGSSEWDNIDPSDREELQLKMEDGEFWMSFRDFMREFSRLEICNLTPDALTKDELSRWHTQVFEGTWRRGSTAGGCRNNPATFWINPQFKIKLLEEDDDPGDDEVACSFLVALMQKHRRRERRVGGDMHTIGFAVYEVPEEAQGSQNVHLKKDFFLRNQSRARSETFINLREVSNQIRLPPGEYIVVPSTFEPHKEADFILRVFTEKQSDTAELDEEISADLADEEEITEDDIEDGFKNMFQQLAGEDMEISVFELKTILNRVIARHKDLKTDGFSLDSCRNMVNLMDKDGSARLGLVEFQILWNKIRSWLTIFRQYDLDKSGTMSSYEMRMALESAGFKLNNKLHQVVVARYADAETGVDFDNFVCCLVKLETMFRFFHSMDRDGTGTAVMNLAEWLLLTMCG
Experiment: Inhibitory activity against chicken gizzard smooth muscle calpain

Ki [µM] | SMILES
2.5 | CC(C)[C@H](NC(=O)OCc1ccccc1)C(=O)C[C@H](C=O)Cc1ccccc1
0.01 | CC(C)[C@H](NC(=O)OCc1ccccc1)C(=O)NC(C=O)Cc1ccccc1 (stereo partly drawn) (Cbz-Val-[ξF]-aldehyde)
45 | CC(C=O)CC(=O)[C@@H](NC(=O)OCc1ccccc1)C(C)C (stereo partly drawn)
